Results published in patent publication US7056893B2, “Topical treatment for prevention of ocular infections” (Insite Vision, Inc., priority 1999, dated 2006).

Assays:
[1] = type: physicochemical
Description: The thermal stability of azithromycin at 40° C. is measured in 50 mM phosphate buffer adjusted to the pH values indicated in FIG. 2. FIG. 3 is a secondary plot of data derived from the azithromycin stability profiles in FIG. 2. […] 6-6.5. A formulation pH of 6.3 is preferred to minimize degradation of azithromycin in aqueous formulations including those that employ DuraSite®.

[2] = type: physicochemical; remark: listed apart in the source
Description: Ophthalmic carrier(s) is used in a broad sense and includes any material or composition that can contain and release the azalide antibiotic and that is compatible with the eye. Typically the ophthalmically acceptable carrier is water or an aqueous solution or suspension, but also includes oils such as those used to make ointments and polymer matrices such as used in ocular inserts. […] The stabilized compositions of this invention advantageously employ the increased water solubility of the protonated form of the antibiotic that is compatible with the optimal pH range for azalide antibiotic stability. […] Accordingly, stabilized aqueous solution of an azalide antibiotic can be formed and used for topical application. Alternatively, aqueous compositions containing a portion of the azalide antibiotic in suspension may be employed for topical administration. Ointments and solid dosage forms can also be used as delivery compositions as are well known in the art. The concentration of azalide antibiotic present in the ophthalmic composition depends upon the dosage form, the release rate, the dosing regimen, and the location and type of infection. […]
The solubility of azithromycin is measured as a function of pH in 0.2 M citric acid buffer over the range of pH 5.91 to 9.0.

| pH interval of maximum stability [1] | pH of stability maximum [1] | water solubility [2] | SMILES |
| --- | --- | --- | --- |
| 5.0-7.0 | about 6.3 | – | CCC1OC(=O)C(C)C(OC2CC(C)(OC)C(O)C(C)O2)C(C)C(OC2OC(C)CC(N(C)C)C2O)C(C)(O)CC(C)CN(C)C(C)C(O)C1(C)O (stereo not drawn) [Azithromycin, N-methyl-11-aza-10-deoxo-10-dihydroerythromycin] |
| – | – | 200 to 250 mg/mL | CC[C@H]1OC(=O)[C@H](C)[C@@H](O[C@H]2C[C@@](C)(OC)[C@@H](O)[C@H](C)O2)[C@H](C)[C@@H](O[C@@H]2O[C@H](C)C[C@H](N(C)C)[C@H]2O)[C@](C)(O)C[C@@H](C)CN(C)[C@H](C)[C@@H](O)[C@]1(C)O.O.O [azithromycin dihydrate] |
